Measurements from patent US9856279B2 (AGIOS PHARMACEUTICALS, INC, priority 2011, dated 2018).

Tests used:
[1] = molecular target: IDH1 R132H (Homo sapiens, UniProt O75874, R132H); test: Assay for IDH1 R132H inhibitors (NADPH/aKG, resazurin detection); format: biochemical; conditions: enzyme assay of Example 12; read-out: IDH1R132H IC50
Outline: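 Read-out is resorufin fluorescence (Ex544/Em590) 5 min after adding a 30 μM resazurin detection mix. Before that, mutant enzyme (0.2 μg/ml in its mix) ran 50 min at room temperature with compound, 8 uM NADPH and 2 mM aKG (mix levels) in Tris pH 7.5 with NaCl, MgCl2, BSA.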

[2] = tested on: U87MG cells; test: Cellular assay for IDH1m inhibitors: inhibition of 2-HG production (LC-MS, 48 hours) in U87MG cells; format: cell-based; conditions: Homo sapiens, U-87 MG, inhibition of 2-HG production, U87R132H cells; read-out: U87R132H IC50
Outline: (§1)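 HT1080 or U87MG cells were seeded at 5000/well in DMEM with 10% FBS, incubated overnight, then treated with compounds (0.2% DMSO final) for 48 h. Medium 2-HG was quantified by LC-MS, and IC50 was taken as the concentration reducing 2-HG by 50% versus DMSO control.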

[3] = tested on: HT1080 cells; test: Cellular assay for IDH1m inhibitors: inhibition of 2-HG production (LC-MS, 48 hours) in HT1080 cells; format: cell-based; conditions: Homo sapiens, HT-1080; inhibition of 2-HG production, HT1080 cells; read-out: HT1080 IC50
Outline: as §1

Sequence of IDH1 R132H (O75874 whole entry R132H): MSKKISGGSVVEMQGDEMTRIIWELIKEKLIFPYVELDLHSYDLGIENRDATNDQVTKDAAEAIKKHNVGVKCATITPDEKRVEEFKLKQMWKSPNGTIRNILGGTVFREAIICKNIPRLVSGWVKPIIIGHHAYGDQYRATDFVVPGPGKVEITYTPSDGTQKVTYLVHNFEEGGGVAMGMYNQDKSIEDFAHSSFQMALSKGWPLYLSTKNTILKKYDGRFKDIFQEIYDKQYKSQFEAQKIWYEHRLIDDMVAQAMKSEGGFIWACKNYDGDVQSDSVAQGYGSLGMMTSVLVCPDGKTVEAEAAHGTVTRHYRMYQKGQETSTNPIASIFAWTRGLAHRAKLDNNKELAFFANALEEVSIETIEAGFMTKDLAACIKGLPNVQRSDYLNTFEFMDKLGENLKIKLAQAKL

| Compound | IC50 [1] | IC50 [2] | IC50 [3] |
| --- | --- | --- | --- |
| C=Cc1cnc2c(-c3cc(C#N)c(N4CCN(C(=O)CCOC)[C@H](C5CC5)C4)nc3C3CC3)cccc2n1 [Compound 644, (R)-6-cyclopropyl-2-(3-cyclopropyl-4-(3-methoxypropanoyl)piperazin-1-yl)-5-(2-vinylquinoxalin-5-yl)nicotinonitrile] | < 500 nM | < 500 nM | < 500 nM |
| C#Cc1ccnc(Nc2cc(C#N)c(N3CCN(C(=O)COC)[C@H](C4CC4)C3)nc2C2CC2)c1 [Compound 750, (R)-6-cyclopropyl-2-(3-cyclopropyl-4-(2-methoxyacetyl)piperazin-1-yl)-5-(4-ethynylpyridin-2-ylamino)nicotinonitrile] | < 500 nM | < 500 nM | < 500 nM |
| C=CC(=O)Nc1cccc(C(C)Oc2cc(C#N)c(N3CCN(C(=O)CCOC)[C@H](C)C3)nc2C2CC2)c1 (stereo partly drawn) [Compound 407, N-(3-(1-(5-cyano-2-cyclopropyl-6-((R)-4-(3-methoxypropanoyl)-3-methylpiperazin-1-yl)pyridin-3-yloxy)ethyl)phenyl)acrylamide] | < 500 nM | < 500 nM | < 500 nM |
| C=Cc1cc(-c2cc(C#N)c(N3CCN(C(=O)CCOC)[C@H](C)C3)nc2C2CC2)c2ccccc2n1 [Compound 592, (R)-6-cyclopropyl-2-(4-(3-methoxypropanoyl)-3-methylpiperazin-1-yl)-5-(2-vinylquinolin-4-yl)nicotinonitrile] | < 500 nM | < 500 nM | < 500 nM |
| C=CC(=O)N1CCC=C(c2c(C3CC3)nc(N3CCN(C(=O)CCO)[C@H](C4CC4)C3)c(C#N)c2C)C1 [Compound 755, (R)-5-(1-acryloyl-1,2,5,6-tetrahydropyridin-3-yl)-6-cyclopropyl-2-(3-cyclopropyl-4-(3-hydroxypropanoyl)piperazin-1-yl)-4-methylnicotinonitrile] | < 500 nM | < 500 nM | < 500 nM |
| COCCC(=O)N1CCN(c2nc(C3CC3)c(-c3cccnc3OC)c(C)c2C#N)C[C@H]1C [Compound 320, (R)-2-cyclopropyl-2′-methoxy-6-[4-(3-methoxy-propionyl)-3-methyl-piperazin-1-yl]-4-methyl-[3,3′]bipyridinyl-5-carbonitrile] | < 500 nM | < 500 nM | 500 to 1000 nM |
| C=Cc1cnnc(-c2c(C3CC3)nc(N3CCN(C(=O)OC(C)(C)C)[C@H](C4CC4)C3)c(C#N)c2C)c1 [Compound 771, (R)-tert-butyl 4-(3-cyano-6-cyclopropyl-4-methyl-5-(5-vinylpyridazin-3-yl)pyridin-2-yl)-2-cyclopropylpiperazine-1-carboxylate] | < 500 nM | < 500 nM | < 500 nM |
| C=Cc1cccc(-c2cc(C#N)c(N3CCN(C(=O)C4CC4)[C@H](C4CC4)C3)nc2C2CC2)n1 [Compound 499, (R)-6′-(4-(cyclopropanecarbonyl)-3-cyclopropylpiperazin-1-yl)-2′-cyclopropyl-6-vinyl-2,3′-bipyridine-5′-carbonitrile] | 500 to 1000 nM | 1000 to 10000 nM | 1000 to 10000 nM |

Next, values leading:

| IC50 [1] | IC50 [2] | IC50 [3] | Compound |
| --- | --- | --- | --- |
| 500 to 1000 nM | < 500 nM | 500 to 1000 nM | C=Cc1nccc(-c2cc(C#N)c(N3CCN(C(=O)C4CC4)[C@H](C4CC4)C3)nc2C2CC2)n1 [Compound 496, (R)-2-(4-(cyclopropanecarbonyl)-3-cyclopropylpiperazin-1-yl)-6-cyclopropyl-5-(2-vinylpyrimidin-4-yl)nicotinonitrile] |
| < 500 nM | < 500 nM | < 500 nM | C=Cc1cc(-c2c(C3CC3)nc(N3CCN(C(=O)C[C@H]4CCO4)[C@H](C(C)C)C3)c(C#N)c2C)ccn1 [Compound 781, 2-cyclopropyl-6-((R)-3-isopropyl-4-(2-((R)-oxetan-2-yl)acetyl)piperazin-1-yl)-4-methyl-2′-vinyl-3,4′-bipyridine-5-carbonitrile] |
| < 500 nM | 500 to 1000 nM | 1000 to 10000 nM | COCCC(=O)N1CCN(c2nc(C3CC3)c(-c3ccc(NC(C)=O)cc3)cc2C#N)C[C@H]1C [Compound 412, (R)—N-(4-(5-cyano-2-cyclopropyl-6-(4-(3-methoxypropanoyl)-3-methylpiperazin-1-yl)pyridin-3-yl)phenyl)acetamide] |
| < 500 nM | < 500 nM | < 500 nM | C=Cc1cc(-c2c(C3CC3)nc(N3CCN(C(=O)CCO)[C@H](C)C3)c(C#N)c2C)ccn1 [Compound 654, (R)-2-cyclopropyl-6-(4-(3-hydroxypropanoyl)-3-methylpiperazin-1-yl)-4-methyl-2′-vinyl-[3,4′-bipyridine]-5-carbonitrile] |
| < 500 nM | 500 to 1000 nM | 1000 to 10000 nM | COCCC(=O)N1CCN(c2nc(C3CC3)c(-c3ccc4scnc4c3)cc2C#N)C[C@H]1C [Compound 352, (R)-5-benzothiazol-5-yl-6-cyclopropyl-2-[4-(3-methoxy-propionyl)-3-methyl-piperazin-1-yl]-nicotinonitrile] |
| < 500 nM | 500 to 1000 nM | 500 to 1000 nM | COCCC(=O)N1CCN(c2nc(C3CC3)c(-c3ccc4c(c3)CC(=O)N4)cc2C#N)C[C@H]1C [Compound 384, (R)-6-cyclopropyl-2-(4-(3-methoxypropanoyl)-3-methylpiperazin-1-yl)-5-(2-oxoindolin-5-yl)nicotinonitrile] |
| < 500 nM | 500 to 1000 nM | 500 to 1000 nM | CCC(=O)Nc1cccc(-c2cc(C#N)c(N3CCN(C(=O)CCOC)[C@H](C)C3)nc2C2CC2)c1 [Compound 424, (R)—N-(3-(5-cyano-2-cyclopropyl-6-(4-(3-methoxypropanoyl)-3-methylpiperazin-1-yl)pyridin-3-yl)phenyl)propionamide] |
| < 500 nM | 500 to 1000 nM | 500 to 1000 nM | COCCC(=O)N1CCN(c2nc(C3CC3)c(-c3ccc(OC)c(F)c3)c(C)c2C#N)C[C@H]1C [Compound 323, (R)-6-cyclopropyl-5-(3-fluoro-4-methoxy-phenyl)-2-[4-(3-methoxy-propionyl)-3-methyl-piperazin-1-yl]-4-methyl-nicotinonitrile] |
| < 500 nM | < 500 nM | < 500 nM | C=Cc1cc(Cc2cc(C#N)c(N3CCN(C(=O)CCO)[C@H](C4CC4)C3)nc2C2CC2)ccn1 [Compound 697, (R)-6-cyclopropyl-2-(3-cyclopropyl-4-(3-hydroxypropanoyl)piperazin-1-yl)-5-((2-vinylpyridin-4-yl)methyl)nicotinonitrile] |
| < 500 nM | < 500 nM | 500 to 1000 nM | COCCC(=O)N1CCN(c2nc(C3CC3)c(-c3cncc4ccccc34)c(C)c2C#N)C[C@H]1C [Compound 408, 6-cyclopropyl-5-(isoquinolin-4-yl)-2-((R)-4-(3-methoxypropanoyl)-3-methylpiperazin-1-yl)-4-methylnicotinonitrile] |
| < 500 nM | < 500 nM | < 500 nM | C=Cc1cc(Nc2c(C3CC3)nc(N3CCN(C(=O)CCO)[C@H](C(C)C)C3)c(C#N)c2C)ccn1 [Compound 799, (R)-6-cyclopropyl-2-(4-(3-hydroxypropanoyl)-3-isopropylpiperazin-1-yl)-4-methyl-5-((2-vinylpyridin-4-yl)amino)nicotinonitrile] |
